Assay [1] has as its system laser-induced hypertensive monkeys. As to the kind of experiment: Intraocular pressure reduction in laser-induced hypertensive monkeys. Type of assay: in vivo.
A further assay deals with normotensive dogs. As to the kind of experiment: Intraocular pressure reduction in normotensive dogs. Format: in vivo. The method, then: U.S. Pat. No. 7,091,231 describes the methods used for these in vivo tests.
Compounds such as those described in the above are tested in vivo to measure its ability to reduce intraocular pressure. Compound 14a is tested in normotensive dogs.

Assay [2] deals with lashes and adjacent hairs of glaucoma patients. As to the kind of experiment: Observation of eyelash/hair growth in glaucoma patients treated in one eye. To be noted: glaucoma patients treated unilaterally. Format: in vivo, humans. The source says: In the course of treating patients having glaucoma, treatment may only be appropriate in one eye. […] The lash appearance on the lids of the treated eyes would have appeared quite attractive if it represented a bilateral phenomenon. As a result of its asymmetric nature, the long lashes on one side could be construed as disturbing from a cosmetic standpoint. A systemic examination was preformed as a result of the asymmetric phenomenon. It soon became apparent that this altered appearance was not an isolated finding. […] Definite differences could be identified to varying degrees in the lashes and adjacent hairs of all patients who were taking the drug on a unilateral basis for longer than 6 months.
The changes in the lashes were apparent on gross inspection in several patients once attention was focused on the issue. In those with light colored hair and lashes, the differences were only seen easily with the aid of the high magnification and lighting capabilities of the slit lamp biomicroscope. In the course of glaucoma follow-up examination, attention is generally immediately focused on the eye itself. As a result of the high power magnification needed only one eye is seen at a time and the eye is seen at a high enough power that the lashes are not in focus. […]

As to `CC(=O)OCCc1cc(Cl)cc(OCC2C(O)CC(Cl)C2CC=CCCCC(=O)OCCO)c1` (centres unmarked) [Compound 16a], the “IOP change from baseline” value in assay [1] is “decreases from baseline”. The “intraocular pressure (IOP) change from baseline” value in the assay on normotensive dogs is “decreases from baseline”.
With `CC(=O)OCCc1cc(Cl)cc(OCC2C(O)CC(Cl)C2CC=CCCCC(=O)OCCN2CCOCC2)c1` (centres unmarked) [Compound 16b], the “IOP change from baseline” value in assay [1] was “decreases from baseline”. The “intraocular pressure (IOP) change from baseline” value with normotensive dogs is recorded as “decreases from baseline”.
For `COCc1cc(Cl)cc(OCC2C(O)CC(Cl)C2CC=CCCCC(=O)OCCO)c1` (centres unmarked) [Compound 22a], the “IOP change from baseline” value in assay [1] is recorded as “decreases from baseline”. Further, the “intraocular pressure (IOP) change from baseline” value in the assay on normotensive dogs is on record as “decreases from baseline”.
In the case of `COCc1cc(Cl)cc(OCC2C(O)CC(Cl)C2CC=CCCCC(=O)OCCN2CCOCC2)c1` (centres unmarked) [Compound 22b], the “IOP change from baseline” value in assay [1] is “decreases from baseline”. Moreover, the “intraocular pressure (IOP) change from baseline” value in the assay on normotensive dogs was “decreases from baseline”.
For `O=C(OCCO)c1ccc(CCCC2C(Cl)CC(O)C2COc2cc(Cl)cc(Cl)c2)s1` (centres unmarked) [Compound 33a], in assay [1], the “IOP change from baseline” value is on record as “decreases from baseline”. Moreover, the “intraocular pressure (IOP) change from baseline” value with normotensive dogs was “decreases from baseline”.
For `O=C(OCCN1CCOCC1)c1ccc(CCCC2C(Cl)CC(O)C2COc2cc(Cl)cc(Cl)c2)s1` (centres unmarked) [Compound 33b], the “IOP change from baseline” value in assay [1] is recorded as “decreases from baseline”. Also, the “intraocular pressure (IOP) change from baseline” value in the assay on normotensive dogs is “decreases from baseline”.
For the compound `O=C(OCCO)c1ccc(CCCC2C(Cl)CC(O)C2COc2cc(Cl)cc(CO)c2)s1` (centres unmarked) [Compound 34a], the “IOP change from baseline” value in assay [1] was “decreases from baseline”. For the same compound, the “intraocular pressure (IOP) change from baseline” value with normotensive dogs is reported as “decreases from baseline”.
Consider `O=C(OCCN1CCOCC1)c1ccc(CCCC2C(Cl)CC(O)C2COc2cc(Cl)cc(CO)c2)s1` (centres unmarked) [Compound 34b], for which, in assay [1], the “IOP change from baseline” value was “decreases from baseline”. Besides, the “intraocular pressure (IOP) change from baseline” value in the assay with normotensive dogs is given as “decreases from baseline”.
For the compound `Cc1cc(C)cc(OCC2C(O)CC(Cl)C2CCCc2ccc(C(=O)OCCO)s2)c1` (centres unmarked) [Compound 35a], in assay [1], the “IOP change from baseline” value is recorded as “decreases from baseline”. The “intraocular pressure (IOP) change from baseline” value in the assay with normotensive dogs is reported as “decreases from baseline”.
As to `Cc1cc(C)cc(OCC2C(O)CC(Cl)C2CCCc2ccc(C(=O)OCCN3CCOCC3)s2)c1` (centres unmarked) [Compound 35b], the “IOP change from baseline” value in assay [1] is “decreases from baseline”. Besides, in the assay with normotensive dogs, the “intraocular pressure (IOP) change from baseline” value is reported as “decreases from baseline”.
As for `O=C(OCCO)c1ccc(CCCC2C(=O)CCC2COc2cc(Cl)cc(CO)c2)s1` (centres unmarked) [Compound 46a], the “IOP change from baseline” value in assay [1] is “decreases from baseline”. Moreover, in the assay with normotensive dogs, the “intraocular pressure (IOP) change from baseline” value is reported as “decreases from baseline”.
For `O=C(OCCN1CCOCC1)c1ccc(CCCC2C(=O)CCC2COc2cc(Cl)cc(CO)c2)s1` (centres unmarked) [Compound 46b], in assay [1], the “IOP change from baseline” value is recorded as “decreases from baseline”. The “intraocular pressure (IOP) change from baseline” value in the assay on normotensive dogs is on record as “decreases from baseline”.
In the case of `O=C(OCCO)c1ccc(CCCC2C(Cl)CCC2COc2cc(Cl)cc(CO)c2)s1` (centres unmarked) [Compound 51a], the “IOP change from baseline” value in assay [1] is “decreases from baseline”. In addition, the “intraocular pressure (IOP) change from baseline” value with normotensive dogs is given as “decreases from baseline”.
For `O=C(OCCN1CCOCC1)c1ccc(CCCC2C(Cl)CCC2COc2cc(Cl)cc(CO)c2)s1` (centres unmarked) [Compound 51b], the “IOP change from baseline” value in assay [1] was “decreases from baseline”. Moreover, the “intraocular pressure (IOP) change from baseline” value in the assay on normotensive dogs is on record as “decreases from baseline”.
Consider `N#CC1CC(O)C(COc2cc(Cl)cc(Cl)c2)C1CCCc1ccc(C(=O)OCCO)s1` (centres unmarked) [Compound 58a], for which the “IOP change from baseline” value in assay [1] is “decreases from baseline”. For the same compound, the “intraocular pressure (IOP) change from baseline” value in the assay with normotensive dogs was “decreases from baseline”.
Regarding `N#CC1CC(O)C(COc2cc(Cl)cc(Cl)c2)C1CCCc1ccc(C(=O)OCCN2CCOCC2)s1` (centres unmarked) [Compound 58b], the “IOP change from baseline” value in assay [1] is “decreases from baseline”. Further, the “intraocular pressure (IOP) change from baseline” value with normotensive dogs is given as “decreases from baseline”.
For `O=C(OCCO)c1ccc(CCCC2=CCC(O)C2COc2cc(Cl)cc(Cl)c2)s1` (centres unmarked) [Compound 68a], the “IOP change from baseline” value in assay [1] is recorded as “decreases from baseline”. Also, the “intraocular pressure (IOP) change from baseline” value in the assay on normotensive dogs is reported as “decreases from baseline”.
With `O=C(OCCN1CCOCC1)c1ccc(CCCC2=CCC(O)C2COc2cc(Cl)cc(Cl)c2)s1` (centres unmarked) [Compound 68b], the “IOP change from baseline” value in assay [1] was “decreases from baseline”. Further, in the assay with normotensive dogs, the “intraocular pressure (IOP) change from baseline” value was “decreases from baseline”.
On to `O=C(OCCO)c1ccc(CCCC2C(F)CC(O)C2COc2cc(Cl)cc(Cl)c2)s1` (centres unmarked) [Compound 70a], for which the “IOP change from baseline” value in assay [1] is on record as “decreases from baseline”. Further, the “intraocular pressure (IOP) change from baseline” value with normotensive dogs is listed as “decreases from baseline”.
Turning to `O=C(OCCN1CCOCC1)c1ccc(CCCC2C(F)CC(O)C2COc2cc(Cl)cc(Cl)c2)s1` (centres unmarked) [Compound 70b], the “IOP change from baseline” value in assay [1] is on record as “decreases from baseline”. The “intraocular pressure (IOP) change from baseline” value in the assay on normotensive dogs was “decreases from baseline”.
`CCNC(=O)CCC/C=C\C[C@@H]1[C@@H](/C=C/[C@@H](O)CCc2ccccc2)[C@H](O)C[C@@H]1O` [bimatoprost]: the “lash appearance in treated eye versus non-treated eye” value in assay [2] was “longer, thicker, and fuller in the treated eye”.

(Values after patent publication US20090270386A1, “THERAPEUTIC COMPOUNDS” (ALLERGAN, INC., priority 2008, published 2009).)
